We go through 14 compounds from patent US11964988B2, “Fused heterocyclic compounds as RET kinase inhibitors” (ARRAY BIOPHARMA INC., priority 2018, dated 2024).

In one test the target is RET kinase Wild Type (Homo sapiens, UniProt P07949). As to the kind of experiment: biochemical.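 Also: HTRF kinase activity assay on RET enzyme, 1 h reaction at 22 °C, dual-wavelength readout as percent of control, DMSO-only wells as 100%, pre-quenched reactions as 0%.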
The next test deals with G810R mutant RET kinase (Homo sapiens, UniProt P07949, G810R). As to the kind of experiment: biochemical.
Sequence of G810R mutant RET kinase (P07949 29-1114 G810R): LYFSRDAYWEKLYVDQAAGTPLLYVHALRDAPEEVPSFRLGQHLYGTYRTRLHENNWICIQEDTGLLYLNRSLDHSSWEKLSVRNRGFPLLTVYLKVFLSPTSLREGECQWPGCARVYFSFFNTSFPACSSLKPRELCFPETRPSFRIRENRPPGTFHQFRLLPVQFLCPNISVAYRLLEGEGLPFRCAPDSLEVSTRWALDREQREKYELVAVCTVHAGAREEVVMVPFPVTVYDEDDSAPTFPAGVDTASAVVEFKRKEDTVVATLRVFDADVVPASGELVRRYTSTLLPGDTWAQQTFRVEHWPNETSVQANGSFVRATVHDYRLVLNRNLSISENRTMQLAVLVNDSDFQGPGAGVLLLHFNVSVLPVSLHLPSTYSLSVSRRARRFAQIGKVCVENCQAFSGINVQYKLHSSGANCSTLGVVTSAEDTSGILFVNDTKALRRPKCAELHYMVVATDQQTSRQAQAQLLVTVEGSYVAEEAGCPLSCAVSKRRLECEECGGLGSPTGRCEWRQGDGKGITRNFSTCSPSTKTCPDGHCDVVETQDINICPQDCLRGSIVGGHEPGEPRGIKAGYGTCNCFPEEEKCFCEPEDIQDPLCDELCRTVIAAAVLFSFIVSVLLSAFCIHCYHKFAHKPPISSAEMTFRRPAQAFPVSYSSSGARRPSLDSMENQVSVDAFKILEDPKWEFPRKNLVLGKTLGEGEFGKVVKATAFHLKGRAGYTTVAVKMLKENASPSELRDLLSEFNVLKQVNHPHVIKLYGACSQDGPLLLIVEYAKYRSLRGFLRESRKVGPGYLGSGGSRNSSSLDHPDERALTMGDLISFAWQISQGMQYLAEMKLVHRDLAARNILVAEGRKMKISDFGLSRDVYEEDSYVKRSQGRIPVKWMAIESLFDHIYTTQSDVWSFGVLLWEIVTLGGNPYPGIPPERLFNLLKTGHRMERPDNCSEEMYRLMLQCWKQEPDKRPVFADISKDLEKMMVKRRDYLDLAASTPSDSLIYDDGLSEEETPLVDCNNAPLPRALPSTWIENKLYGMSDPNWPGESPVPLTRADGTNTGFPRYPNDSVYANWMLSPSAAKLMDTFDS
In test [1] the target is T1, HEK-293 cells expressing a G810S mutant RET Kif5b-RET fusion protein (Homo sapiens, UniProt P07949, G810S).
T1 construct: KIF5B (N-terminal portion incl. coiled-coil); expressed in transfected cells; host or cells: HEK-293
T1 sequence (P07949 713-1063 G810S limits assumed): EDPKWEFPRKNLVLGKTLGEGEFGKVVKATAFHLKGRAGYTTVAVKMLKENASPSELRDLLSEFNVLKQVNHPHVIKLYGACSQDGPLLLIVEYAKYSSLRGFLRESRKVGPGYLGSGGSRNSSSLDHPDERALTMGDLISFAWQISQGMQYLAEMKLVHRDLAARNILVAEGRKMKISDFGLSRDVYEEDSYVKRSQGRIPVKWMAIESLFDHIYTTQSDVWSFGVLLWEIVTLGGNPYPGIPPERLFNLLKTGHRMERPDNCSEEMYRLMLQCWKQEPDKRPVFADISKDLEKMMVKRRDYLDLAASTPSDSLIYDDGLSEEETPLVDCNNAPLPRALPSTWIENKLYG
The experiment in a line: RET G810S Mutant Cell Assay (phospho-RET Tyr1062). The note with it: HEK-293 Kif5b-RET G810S, 1 hour incubation, phospho-RET normalized to GAPDH. The test is classed as cell-based. Summed up: (§1)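 Engineered HEK-293 cells were treated 1 h with compound in DMEM, 0.5% DMSO final, then fixed, permeabilized and immunostained for phospho-RET Tyr1062 and GAPDH. In-cell fluorescence pRET signal was normalized to GAPDH; IC50 taken from a 4-parameter logistic fit of percent of control at 50 POC.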

In test [2] the target is T2, HEK-293 cells expressing a Kif5b-RET fusion protein (Homo sapiens, UniProt P07949).
T2 construct: KIF5B (N-terminal portion incl. coiled-coil); expressed in transfected cells; host or cells: HEK-293; the other entry of the earlier key: KIF5B (P33176, Kinesin-1 heavy chain)
T2 sequence (P07949 713-1063 limits assumed): T1 sequence (P07949 713-1063 G810S limits assumed) with S98G
The experiment in a line: RET Cell Assay (phospho-RET Tyr1062). It is filed as cell-based. As to conditions: HEK-293 Kif5b-RET, 1 hour incubation, phospho-RET normalized to GAPDH; read-out: KIF5B-RET pTYR1062 Cell IC50. In short, it runs like this:
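Kif5b-RET HEK-293 cells treated 1 hour with compound in DMEM (0.5% DMSO final), then fixed and immunostained for phospho-RET Tyr1062, normalized to GAPDH by infrared fluorescence. IC50 where the 4-parameter logistic fit of POC crosses 50.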

The target in test [3] is T3, HEK-293 cells expressing a G810R mutant RET Kif5b-RET fusion protein (Homo sapiens, UniProt P07949, G810R).
T3 construct: KIF5B (N-terminal portion incl. coiled-coil); expressed in transfected cells; host or cells: HEK-293; the other entry of the earlier key: KIF5B (P33176, Kinesin-1 heavy chain)
T3 sequence (P07949 713-1063 G810R limits assumed): T1 sequence (P07949 713-1063 G810S limits assumed) with S98R
As to the kind of experiment: RET G810R Mutant Cell Assay (phospho-RET Tyr1062). It is filed as cell-based. The note with it: HEK-293 Kif5b-RET G810R, 1 hour incubation, phospho-RET normalized to GAPDH. Summed up:
as §1

Another test concerns the target G810S mutant RET kinase (Homo sapiens, UniProt P07949, G810S). As to the kind of experiment: biochemical.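 Also: HTRF KinEASE-TK kinase assay with recombinant enzyme, 1 h at 22 °C, dual-wavelength ratiometric read-out, percent of control (DMSO-only = 100, pre-quenched reaction = 0).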
The target of the next test is RET kinase V804M (Homo sapiens, UniProt P07949, V804M). The experiment in a line: RET Enzyme Assay (CisBio HTRF KinEASE-TK), V804M. It is filed as biochemical. The note with it: read-out: RET V804M Enz FRET IC50. On the technique in general: TR-FRET usually uses a lanthanide donor and a delayed reading to cut background.
Sequence of RET kinase V804M (P07949 29-1114 V804M): as the sequence (P07949 29-1114 G810R) above, with V776M, R782G counted along it

Changes are numbered by the printed parent chain.

Sequence of RET kinase Wild Type (P07949 29-1114): as the sequence (P07949 29-1114 G810R) above, with R782G counted along it
Sequence of G810S mutant RET kinase (P07949 29-1114 G810S): as the sequence (P07949 29-1114 G810R) above, with R782S counted along it
Procedure for RET kinase V804M: The potency of compounds inhibiting several different RET kinase forms (Wild Type, V804M, G810R, & G810S) were determined using CisBio's HTRF® KinEASE™-TK assay technology. […] After a 1 hour incubation at 22° C., the extent of reaction was determined using a PerkinElmer EnVision multimode plate reader via HTRF dual wavelength detection, and the percent of control (POC) was calculated using a ratiometric emission factor. One hundred POC was determined using DMSO only samples (no compound present), and 0 POC was determined using pre-quenched control reactions.

What is called IC50 is the point on the concentration scale where inhibition reaches its midpoint. Take `CC1Cc2c(c3c(N)ncnc3n2C(C)C)-c2noc(C3CC3)c2C1=O` (stereo not shown) [Example 60, 11-amino-3-cyclopropyl-7-isopropyl-5-methyl-6,7-dihydroisoxazolo[4″,3″:6′,7′]cyclohepta[1′,2′:4,5]pyrrolo[2,3-d]pyrimidin-4(5H)-one]: the IC50 against RET kinase Wild Type is 21 nM; against G810R mutant RET kinase, 45 nM; in test [1], 101 nM; in test [2] it was 29 nM; in test [3] it was 157 nM; at G810S mutant RET kinase, 40 nM. Moreover, the IC50 at RET kinase V804M is 98 nM.

On to `CC(C)n1c2c(c3c(N)ncnc31)-c1noc(C3CC3)c1[C@H](O)[C@@H](C)C2` (single isomer, unassigned) [Example 65], for which the IC50 against RET kinase Wild Type came to 43 nM; against G810R mutant RET kinase, 64 nM; in test [1], 290 nM; in test [2], 45 nM; in test [3], 621 nM; at G810S mutant RET kinase it was 133 nM. Also, the IC50 at RET kinase V804M worked out at 163 nM.

Take `Nc1ncnc2c1c1c(n2C(CF)CF)CC[C@@H](O)c2c-1noc2C1CC1` (single isomer, unassigned) [Example 127]: the IC50 against RET kinase Wild Type was 6 nM; on G810R mutant RET kinase it was 28 nM; in test [1], 52 nM; in test [2], 9 nM; in test [3], 57 nM; against G810S mutant RET kinase, 23 nM. Moreover, the IC50 at RET kinase V804M is 21 nM.

Regarding `CC(C)n1c2c(c3c(N)ncnc31)-c1noc(C3CC3)c1S(=O)(=O)CC2` [Example 23, 11-amino-3-cyclopropyl-7-isopropyl-6,7-dihydro-5H-isoxazolo[4″,3″:2′,3′]thiepino[4′,5′:4,5]pyrrolo[2,3-d]pyrimidine 4,4-dioxide 2,2,2-trifluoroacetate], the concentration for half-maximal inhibition (IC50) at RET kinase Wild Type was 18 nM; on G810R mutant RET kinase, 63 nM; in test [1], 107 nM; in test [2], 20 nM; in test [3], 133 nM; against G810S mutant RET kinase, 54 nM. Also, the IC50 at RET kinase V804M stood at 189 nM.

Take `CC(C)n1c2c(c3c(N)ncnc31)-c1noc(C3CC3)c1[C@@H](O)[C@H](C)C2` (single isomer, unassigned) [Example 64]: the IC50 against RET kinase Wild Type was 39 nM; against G810R mutant RET kinase, 169 nM; in test [1] it was 90 nM; in test [2] it was 47 nM; in test [3], 119 nM; at G810S mutant RET kinase it was 76 nM. On RET kinase V804M, the IC50 came to 182 nM.

In the case of `CO[C@@H]1CCc2c(c3c(N)ncnc3n2C(C)C)-c2noc(C3CC3)c21` (single isomer, unassigned) [Example 58], the half-inhibitory concentration (IC50) at RET kinase Wild Type is 23 nM; against G810R mutant RET kinase it was 64 nM; in test [1], 181 nM; in test [2], 49 nM; in test [3] it was 186 nM; against G810S mutant RET kinase, 159 nM. In addition, at RET kinase V804M, the IC50 amounted to 66 nM.

`CC(C)n1c2c(c3c(N)ncnc31)-c1noc(C3CC3)c1[C@@H](O)CC2` (single isomer, unassigned) [Example 54]: the IC50 on RET kinase Wild Type turned out to be 13 nM; against G810R mutant RET kinase, 70 nM; in test [1] it was 92 nM; in test [2], 22 nM; in test [3], 103 nM; at G810S mutant RET kinase, 54 nM. At RET kinase V804M, the IC50 came to 41 nM.

`CC(C)n1c2c(c3c(N)ncnc31)-c1noc(C3CC3)c1C(O)CC2` (racemic) [Example 29, 11-amino-3-cyclopropyl-7-isopropyl-4,5,6,7-tetrahydroisoxazolo[4″,3″:6′,7′]cyclohepta[1′,2′:4,5]pyrrolo[2,3-d]pyrimidin-4-ol]: the IC50 on RET kinase Wild Type came to 8 nM; at G810R mutant RET kinase, 27 nM; in test [1] it was 37 nM; in test [2], 12 nM; in test [3], 71 nM; against G810S mutant RET kinase it was 25 nM. For the same compound, at RET kinase V804M, the IC50 was 26 nM.

`CC(C)n1c2c(c3c(N)ncnc31)-c1noc(C3CC3)c1[C@@H](O)[C@@H](C)C2` (relative stereo) [Example 63, (Cis)-11-amino-3-cyclopropyl-7-isopropyl-5-methyl-4,5,6,7-tetrahydroisoxazolo[4″,3″:6′,7′]cyclohepta[1′,2′:4,5]pyrrolo[2,3-d]pyrimidin-4-ol]: the concentration for half-maximal inhibition (IC50) was found to be 61 nM against RET kinase Wild Type; 118 nM against G810R mutant RET kinase; 352 nM in test [1]; 72 nM in test [2]; 439 nM in test [3]; 108 nM on G810S mutant RET kinase. In addition, the IC50 at RET kinase V804M came out at 211 nM.

As to `Nc1ncnc2c1c1c(n2C2CCCC2)CC[C@@H](O)c2c-1noc2C1CC1` (single isomer, unassigned) [Example 125], the IC50 at RET kinase Wild Type stood at 11 nM; against G810R mutant RET kinase, 41 nM; in test [1], 16 nM; in test [2] it was 7 nM; in test [3], 16 nM; against G810S mutant RET kinase it was 19 nM. Besides, at RET kinase V804M, the IC50 is 19 nM.

On to `CC(C)n1c2c(c3c(N)ncnc31)-c1cc3ccc(C(=O)NC4(C)CC4)cc3n1CCC2` [Example 97, 1-amino-5-isopropyl-N-(1-methylcyclopropyl)-5,6,7,8-tetrahydropyrimido[5″,4″:4′,5′]pyrrolo[3′,2′: 3,4]azepino[1,2-a]indole-11-carboxamide], for which the IC50 was determined as 73 nM against RET kinase Wild Type; 478 nM on G810R mutant RET kinase; 47 nM in test [1]; 26 nM in test [2]; 47 nM in test [3]; 457 nM at G810S mutant RET kinase. Moreover, the half-maximal inhibitory concentration (IC50) at RET kinase V804M stood at 4460 nM.

On to `Cc1ccc2c(c1)cc1n2C(=O)NCc2c-1c1c(N)ncnc1n2C(C)C` [Example 81, 1-amino-5-isopropyl-12-methyl-6,7-dihydropyrimido[5″,4″:4′,5′]pyrrolo[2′,3′: 5,6][1,3]diazepino[1,7-a]indol-8(5H)-one], for which the IC50 against RET kinase Wild Type was 19 nM; on G810R mutant RET kinase, 94 nM; in test [1] it was 39 nM; in test [2], 11 nM; in test [3] it was 76 nM; against G810S mutant RET kinase, 52 nM. Moreover, on RET kinase V804M, the IC50 was determined as 5490 nM.

For `CC(C)n1c2c(c3c(N)ncnc31)-c1noc(C3CC3)c1[C@H](O)CC2` (single isomer, unassigned) [Example 55], the half-maximal inhibitory concentration (IC50) worked out at 8 nM at RET kinase Wild Type; 31 nM against G810R mutant RET kinase; 40 nM in test [1]; 10 nM in test [2]; 46 nM in test [3]; 29 nM on G810S mutant RET kinase. At RET kinase V804M, the half-maximal inhibitory concentration (IC50) was found to be 21 nM.

For `CC(C)n1c2c(c3c(N)ncnc31)-c1noc(C3CC3)c1S(=O)(=O)NC2` [Example 21, 11-amino-3-cyclopropyl-7-isopropyl-6,7-dihydro-5H-isoxazolo[3,4-f]pyrimido[5′,4′:4,5]pyrrolo[2,3-d][1,2]thiazepine 4,4-dioxide 2,2,2-trifluoroacetate], the IC50 worked out at 9 nM on RET kinase Wild Type; 31 nM against G810R mutant RET kinase; 83 nM in test [1]; 28 nM in test [2]; 87 nM in test [3]; 44 nM at RET kinase V804M.
